Test results published in BindingDB's records for doi:10.1124/mol.110.070540 (University of Technology Sydney, 2011).
pIC50: −log10 of the molar value. Bridge positions count the residues as written; N and C are the ends. Peptide text beside a SMILES is read from it.

Columns and labels:
[1] = Inhibition of voltage-gated calcium channel Cav-mediated late-sustained current in Periplaneta americana (American cockroach) DUM neurons assessed as measured at holding potential -80 mV depolarized to +40 mV after 10 min by whole cell patch clamp assay in presence of CdCl2
[2] = Inhibition of voltage-gated calcium channel Cav-mediated fast-transient current in Periplaneta americana (American cockroach) DUM neurons assessed as measured at holding potential -80 mV depolarized to +40 mV after 10 min by whole cell patch clamp assay in presence of CdCl2

| SMILES | pIC50 [1] | pIC50 [2] |
| --- | --- | --- |
| CSCC[C@@H]1NC(=O)[C@H](CCCCN)NC(=O)[C@H](Cc2ccccc2)NC(=O)[C@H](CCC(N)=O)NC(=O)[C@@H](NC(=O)[C@@H](N)Cc2ccc(O)cc2)CSSC[C@@H]2NC(=O)[C@@H]3CSSC[C@@H](C(=O)N[C@@H](CCCCN)C(=O)N[C@@H](CC(C)C)C(=O)N[C@@H](CC(N)=O)C(=O)N[C@@H](CC(C)C)C(=O)O)NC(=O)[C@H](Cc4c[nH]c5ccccc45)NC(=O)[C@H](CC(C)C)NC(=O)[C@H](CCCNC(=N)N)NC(=O)[C@H](CSSC[C@H](NC(=O)[C@H]([C@@H](C)O)NC(=O)[C@H](Cc4c[nH]c5ccccc45)NC1=O)C(=O)N[C@@H](CC(=O)O)C(=O)N[C@@H](CO)C(=O)N[C@@H](CCC(=O)O)C(=O)N[C@@H](CCCNC(=N)N)C(=O)N[C@@H](CCCCN)C(=O)N3)NC(=O)[C@H](C(C)C)NC(=O)[C@H](CCSC)NC(=O)[C@H](CC(=O)O)NC(=O)[C@H](CCC(=O)O)NC2=O | 7.72 | 7.60 |
| CSCC[C@@H]1NC(=O)[C@H](CC(=O)O)NC(=O)[C@H](CCC(=O)O)NC(=O)[C@@H]2CSSC[C@H](NC(=O)[C@@H](N)Cc3ccc(O)cc3)C(=O)N[C@@H](CCC(N)=O)C(=O)N[C@@H](CCCCN)C(=O)N[C@@H](Cc3ccccc3)C(=O)N[C@@H](CC(C)C)C(=O)N[C@@H](Cc3c[nH]c4ccccc34)C(=O)N[C@@H]([C@@H](C)O)C(=O)N[C@H]3CSSC[C@H](NC(=O)[C@H](C(C)C)NC1=O)C(=O)N[C@@H](CCC(=O)O)C(=O)N[C@@H](CC(C)C)C(=O)N[C@@H](Cc1c[nH]c4ccccc14)C(=O)N[C@H](C(=O)N[C@@H](CCCCN)C(=O)N[C@@H](CC(C)C)C(=O)N[C@@H](CCC(=O)O)C(=O)N[C@@H](CCCCN)C(=O)O)CSSC[C@H](NC(=O)[C@H](CCCCN)NC(=O)[C@H](CCCNC(=N)N)NC(=O)[C@H](CCC(=O)O)NC(=O)[C@H]([C@@H](C)O)NC(=O)[C@H](CC(=O)O)NC3=O)C(=O)N2 (H-YCQKFLWTCDTERKCCEDMVCELWCKLEK-OH; disulfide 2-16, 9-21, 15-25) | 8.43 | 8.43 |
| CSCC[C@@H]1NC(=O)[C@H](CC(=O)O)NC(=O)[C@H](CCC(=O)O)NC(=O)[C@@H]2CSSC[C@H](NC(=O)[C@@H](N)Cc3ccc(O)cc3)C(=O)N[C@@H](CCC(N)=O)C(=O)N[C@@H](CCCCN)C(=O)N[C@@H](Cc3ccccc3)C(=O)N[C@@H](CC(C)C)C(=O)N[C@@H](Cc3c[nH]c4ccccc34)C(=O)N[C@@H]([C@@H](C)O)C(=O)N[C@H]3CSSC[C@H](NC(=O)[C@H](C(C)C)NC1=O)C(=O)N[C@@H](CCC(=O)O)C(=O)N[C@@H](CC(C)C)C(=O)N[C@@H](Cc1c[nH]c4ccccc14)C(=O)N[C@H](C(=O)N[C@@H](CCCCN)C(=O)N[C@@H](Cc1ccc(O)cc1)C(=O)N[C@@H](CCCCN)C(=O)N[C@@H](CCC(=O)O)C(=O)O)CSSC[C@H](NC(=O)[C@H](CCCCN)NC(=O)[C@H](CCCNC(=N)N)NC(=O)[C@H](CCC(=O)O)NC(=O)[C@H]([C@@H](C)O)NC(=O)[C@H](CC(=O)O)NC3=O)C(=O)N2 (H-YCQKFLWTCDTERKCCEDMVCELWCKYKE-OH; disulfide 2-16, 9-21, 15-25) | 7.59 | 7.60 |
